Assay results published in paper PMC4669789, “Selective inhibition of HDAC8 decreases neuroblastoma growth in vitro and in vivo and enhances retinoic acid-mediated differentiation” (Cell Death & Disease, 2015).
“And” between values parts separate entries of the source, which are not always exact repeats. Identical values can stand only once.

Assays:
HDAC10 = biological target: T1, HDAC10 (Homo sapiens, UniProt Q969S8); experiment: In vitro HDAC activity assay (Reaction Biology); type: biochemical; conditions: cell-free; read-out: IC50 values of HDAC8 inhibitors, HDAC10
T1 sequence (Q969S8 1-323 limits assumed): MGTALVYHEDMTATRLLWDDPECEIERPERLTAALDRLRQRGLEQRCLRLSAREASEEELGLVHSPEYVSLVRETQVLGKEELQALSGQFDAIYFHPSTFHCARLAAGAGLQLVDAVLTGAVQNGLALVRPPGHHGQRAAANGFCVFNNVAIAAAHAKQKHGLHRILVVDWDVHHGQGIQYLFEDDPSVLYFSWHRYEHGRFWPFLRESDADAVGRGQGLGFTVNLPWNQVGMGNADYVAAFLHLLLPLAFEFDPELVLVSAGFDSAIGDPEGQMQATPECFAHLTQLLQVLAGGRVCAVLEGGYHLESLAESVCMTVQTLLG
Procedure: (§1) Peptide substrate was conjugated with AMC. […] The HDAC reaction was performed at 30 °C for 2 h before adding the developer reagent. The free AMC was detected with excitation of 360 nm and emission 460 nm at kinetic mode for 90 min. IC50 values were calculated with GraphPad Prism version 3.0a (GraphPad Software Inc., San Diego, CA, USA).

HDAC2 = HDAC2 (Homo sapiens, UniProt Q92769); experiment: In vitro HDAC activity assay (Reaction Biology); type: biochemical; conditions: cell-free; read-out: IC50 values of HDAC8 inhibitors, HDAC2
Chain of HDAC2 (Q92769 9-322 limits assumed): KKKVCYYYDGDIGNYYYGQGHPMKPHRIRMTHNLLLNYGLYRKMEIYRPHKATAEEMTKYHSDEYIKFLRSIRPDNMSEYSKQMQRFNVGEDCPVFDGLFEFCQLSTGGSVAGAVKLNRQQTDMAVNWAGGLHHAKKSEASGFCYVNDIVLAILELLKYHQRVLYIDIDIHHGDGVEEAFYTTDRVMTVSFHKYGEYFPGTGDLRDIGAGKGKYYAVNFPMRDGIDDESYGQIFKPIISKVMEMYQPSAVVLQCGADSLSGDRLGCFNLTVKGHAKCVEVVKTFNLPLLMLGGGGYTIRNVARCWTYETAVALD
Procedure: as §1

HDAC3 = HDAC3 (Homo sapiens, UniProt O15379); experiment: In vitro HDAC activity assay (Reaction Biology); type: biochemical; conditions: cell-free; read-out: IC50 values of HDAC8 inhibitors, HDAC3
Chain of HDAC3 (O15379 3-316 limits assumed): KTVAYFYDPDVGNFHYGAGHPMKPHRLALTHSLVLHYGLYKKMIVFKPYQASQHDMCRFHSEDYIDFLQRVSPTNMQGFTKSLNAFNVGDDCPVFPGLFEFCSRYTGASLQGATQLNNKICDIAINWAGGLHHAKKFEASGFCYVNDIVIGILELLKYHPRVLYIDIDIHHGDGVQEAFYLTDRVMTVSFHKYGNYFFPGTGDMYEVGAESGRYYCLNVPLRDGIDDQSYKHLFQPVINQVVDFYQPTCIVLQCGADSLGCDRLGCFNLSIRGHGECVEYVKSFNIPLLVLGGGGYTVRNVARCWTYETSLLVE
Chain of HDAC3 (Q9Y618 395-489 partner limits assumed): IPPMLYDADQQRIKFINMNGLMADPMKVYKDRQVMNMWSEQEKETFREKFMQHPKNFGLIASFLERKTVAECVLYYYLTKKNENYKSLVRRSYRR
Procedure: as §1

HDAC4 = HDAC4 (Homo sapiens, UniProt P56524); experiment: In vitro HDAC activity assay (Reaction Biology); type: biochemical; conditions: cell-free; read-out: IC50 values of HDAC8 inhibitors, HDAC4
Chain of HDAC4 (P56524 655-1084 limits assumed): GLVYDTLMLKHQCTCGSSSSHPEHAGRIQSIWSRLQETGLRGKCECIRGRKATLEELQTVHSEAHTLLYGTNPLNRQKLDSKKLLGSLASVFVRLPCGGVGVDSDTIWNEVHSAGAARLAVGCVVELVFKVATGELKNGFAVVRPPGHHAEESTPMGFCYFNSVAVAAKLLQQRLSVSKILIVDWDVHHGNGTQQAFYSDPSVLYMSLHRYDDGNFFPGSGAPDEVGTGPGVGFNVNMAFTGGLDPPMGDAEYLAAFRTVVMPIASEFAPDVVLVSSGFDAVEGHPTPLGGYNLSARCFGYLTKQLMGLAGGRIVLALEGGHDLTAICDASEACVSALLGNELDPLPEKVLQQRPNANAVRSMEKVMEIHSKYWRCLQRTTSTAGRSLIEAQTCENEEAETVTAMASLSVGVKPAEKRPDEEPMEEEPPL
Procedure: as §1

HDAC5 = HDAC5 (Homo sapiens, UniProt Q9UQL6); experiment: In vitro HDAC activity assay (Reaction Biology); type: biochemical; conditions: cell-free; read-out: IC50 values of HDAC8 inhibitors, HDAC5
Chain of HDAC5 (Q9UQL6 684-1028 limits assumed): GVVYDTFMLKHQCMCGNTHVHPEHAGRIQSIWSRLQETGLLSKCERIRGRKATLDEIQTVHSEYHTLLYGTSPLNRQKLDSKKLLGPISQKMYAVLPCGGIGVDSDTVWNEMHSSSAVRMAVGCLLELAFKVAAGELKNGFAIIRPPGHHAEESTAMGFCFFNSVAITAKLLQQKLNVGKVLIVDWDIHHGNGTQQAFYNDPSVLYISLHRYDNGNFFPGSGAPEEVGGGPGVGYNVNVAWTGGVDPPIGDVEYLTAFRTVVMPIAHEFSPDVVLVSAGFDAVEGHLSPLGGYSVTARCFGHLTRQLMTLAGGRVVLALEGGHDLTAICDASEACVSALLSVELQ
Procedure: as §1

HDAC7 = biological target: T2, HDAC7 (Homo sapiens, UniProt Q8WUI4); experiment: In vitro HDAC activity assay (Reaction Biology); type: biochemical; conditions: cell-free; read-out: IC50 values of HDAC8 inhibitors, HDAC7
T2 sequence (Q8WUI4 512-865 limits assumed): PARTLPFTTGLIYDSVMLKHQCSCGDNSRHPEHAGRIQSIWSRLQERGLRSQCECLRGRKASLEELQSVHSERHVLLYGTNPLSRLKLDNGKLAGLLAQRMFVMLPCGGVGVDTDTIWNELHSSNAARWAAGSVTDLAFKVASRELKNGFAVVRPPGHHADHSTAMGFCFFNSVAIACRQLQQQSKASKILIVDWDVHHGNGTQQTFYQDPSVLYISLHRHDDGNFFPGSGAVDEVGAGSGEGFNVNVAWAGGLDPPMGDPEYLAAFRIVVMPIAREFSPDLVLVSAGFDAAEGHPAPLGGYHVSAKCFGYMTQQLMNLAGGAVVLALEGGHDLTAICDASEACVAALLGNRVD
Procedure: as §1

HDAC8 = biological target: T3, HDAC8 (Homo sapiens, UniProt Q9BY41); experiment: In vitro HDAC activity assay (Reaction Biology); type: biochemical; conditions: cell-free; read-out: IC50 values of HDAC8 inhibitors, HDAC8
T3 sequence (Q9BY41 14-324 limits assumed): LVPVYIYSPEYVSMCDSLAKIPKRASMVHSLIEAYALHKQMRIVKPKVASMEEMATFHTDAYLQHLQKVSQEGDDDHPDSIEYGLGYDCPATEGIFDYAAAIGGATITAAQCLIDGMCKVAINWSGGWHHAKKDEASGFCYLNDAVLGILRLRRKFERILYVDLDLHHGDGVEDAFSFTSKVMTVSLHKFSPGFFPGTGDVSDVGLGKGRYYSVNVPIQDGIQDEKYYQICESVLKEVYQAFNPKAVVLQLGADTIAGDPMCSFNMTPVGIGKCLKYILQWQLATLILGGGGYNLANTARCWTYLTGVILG
Procedure: as §1

HDAC9 = HDAC9 (Homo sapiens, UniProt Q9UKV0); experiment: In vitro HDAC activity assay (Reaction Biology); type: biochemical; conditions: cell-free; read-out: IC50 values of HDAC8 inhibitors, HDAC9
Chain of HDAC9 (Q9UKV0 631-978 limits assumed): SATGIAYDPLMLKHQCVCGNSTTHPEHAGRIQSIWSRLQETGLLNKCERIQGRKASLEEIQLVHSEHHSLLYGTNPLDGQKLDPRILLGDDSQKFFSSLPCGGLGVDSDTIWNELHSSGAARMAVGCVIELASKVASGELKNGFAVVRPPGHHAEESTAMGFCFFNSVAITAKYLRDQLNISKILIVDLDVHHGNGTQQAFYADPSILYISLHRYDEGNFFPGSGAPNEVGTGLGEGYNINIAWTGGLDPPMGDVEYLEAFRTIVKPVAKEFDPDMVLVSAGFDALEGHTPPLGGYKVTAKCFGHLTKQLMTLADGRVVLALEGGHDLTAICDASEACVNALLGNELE
Procedure: as §1

[1] = Determination of MTD and dose-limiting toxicities; conditions: NMRI Foxn1 nude, mouse, in vivo, ip
Procedure: (§2) Each dose was tested in a cohort of three animals. Resulting MTDs were validated within cohorts of eight animals for each inhibitor. […] As a reference, the blood of 12 untreated NMRI Foxn1 nude mice was analyzed. […] Vorinostat was used as a control for unselective HDAC inhibition.
(§3) DLTs were monitored by observation of general condition and determination of body weight. We used several criteria for objectively measuring DLT. These included a decrease in body weight of ≥20% compared with baseline body weight, blood analysis of standard parameters for clinical chemistry and hematology (central laboratory of University Hospital Heidelberg, Heidelberg, Germany) and organ histopathology (formalin-fixed, paraffin-embedded organs), by H&E stain for the detection of necrosis (Prof. Dr. AD Gruber, Institute for Veterinary Pathology, Berlin, Germany).

NMRI Foxn1 nude mice [2] = experiment: Determination of MTD and dose-limiting toxicities
Procedure: as §2, §3

NMRI Foxn1 nude mice [3] = experiment: Blood parameters (clinical chemistry, hematology) at MTD; type: in vivo; conditions: n=8, mean ±S.D.
Procedure: as §2, §3

[4] = Determination of inhibitor plasma half-life; type: in vivo, mouse
[5] = tested on: neuroblastoma cell culture; experiment: Intracellular whole lysine acetylation via FACS; type: cell-based, human
Procedure: Cells were collected, washed with PBS and fixed with 2% paraformaldehyde for 15 min at room temperature (RT). Cells were permeabilized by incubation with 50 μg/ml digitonin for 6 min at RT. Cells were incubated with primary antibody overnight at 4 °C. After staining with Cy3-conjugated anti-rabbit antibody, cells were analyzed by FACS using CellQuest software (BD Biosciences, San Jose, CA, USA). The following primary antibodies were used: anti-acetylated lysine (polyclonal; Cell Signaling) and anti-neurofilament-M (clone EP2460; Epitomics, Burlingame, CA, USA).

For `O=C(NO)c1cccc2ccccc12` [Cpd2, 1-naphthohydroxamic acid], the IC50 (HDAC10) was > 75.6 µM, the IC50 (HDAC2) was > 75.6 µM and the IC50 (HDAC3) was > 75.6 µM. The IC50 (HDAC4) was > 75.6 µM, the IC50 (HDAC5) was > 75.6 µM and the IC50 (HDAC7) was > 75.6 µM. The IC50 (HDAC8) was 34 µM and 33.7 µM, the IC50 (HDAC9) was > 75.6 µM and the MTD [1] was 50 mg/kg/day. For the same molecule, the “Dose-limiting toxicities (DLTs)” value (NMRI Foxn1 nude mice [2]; intraperitoneal, increasing doses 40 up to 400 mg/kg per day) was “weight loss and signs of liver toxicity”, the “body weight and blood parameters at MTD” value (NMRI Foxn1 nude mice [2]; mouse, in vivo) was “neither body weight (Figure 2a) nor blood parameters were critically changed” and the Hematocrit (NMRI Foxn1 nude mice [3]; normal range 0.3–0.4) was 0.4±0.01 l/l. For the same molecule, the Uric acid (NMRI Foxn1 nude mice [3]; normal range 0.4–3.2) was 0.9 ± 1.0 mg/dL, the Leukocytes (NMRI Foxn1 nude mice [3]; normal range 1.8–6.1) was 4.4 ± 1.8 nL⁻¹ and the Calcium (NMRI Foxn1 nude mice [3]; normal range 2.1–2.4) was 2.4 ± 0.4 mmol/L. It also gave a Potassium (NMRI Foxn1 nude mice [3]; normal range 3.8–6.4) of 6.9 ± 2.2 mmol/L, an Erythrocytes (NMRI Foxn1 nude mice [3]; normal range 5.5–8.2) of 7.6 ± 0.3 pL⁻¹ and a Hemoglobin (NMRI Foxn1 nude mice [3]; normal range 9.4–12.7) of 12.4 ± 0.7 g/dL. It also gave a Urea (NMRI Foxn1 nude mice [3]; normal range 17.4–38.3) of 23.5 ± 6.4 mg/dL, an AP (NMRI Foxn1 nude mice [3]; normal range 62.5–117.6) of 123.8±35.8 U/l and a Chloride (NMRI Foxn1 nude mice [3]; normal range 97.3–109.7) of 99.9 ± 2.2 mmol/L. It also gave a Sodium (NMRI Foxn1 nude mice [3]; normal range 123.4–135.7) of 136.8 ± 5.3 mmol/L, a Glucose (NMRI Foxn1 nude mice [3]; normal range 176.8–238.6) of 187.8 ± 39.1 mg/dL and a Thrombocytes (NMRI Foxn1 nude mice [3]; normal range 242.5–806.8) of 682.0 ± 151.1 nL⁻¹. The GGT (NMRI Foxn1 nude mice [3]; normal range −1.9 to 1.0) was −2.0±1.0 U/l, the half-life ([4]; NMRI Foxn1 nude, mouse, plasma, ip, 100 mg/kg, intraperitoneal 100 mg/kg, NMRI Foxn1 nude mice, read-out: half-life in blood plasma) was ~15 min and the plasma peak concentration ([4]; intraperitoneal, single dose of 100 mg/kg, mice) was ~ 30 μM. The “whole acetyl-lysine mean fluorescent values (Blank-corrected)” value ([5]; 20µM, solvent 34.4, second experiment) was 56.9 and the “whole acetyl-lysine mean fluorescent values (Blank-corrected)” value ([5]; 40µM, solvent 24.7, IMR-32 cells, 24 h per Figure 1c) was 36.9.
